Source: ChEMBL document CHEMBL1152286, “Pyrrospirones A and B, apoptosis inducers in HL-60 cells, from an endophytic fungus, Neonectria ramulariae Wollenw KS-246” (Bioorg Med Chem Lett, 2008)
pIC50: −log10 of the molar value. Calls of active or inactive are those of the source. No cut-off for these calls is given here.

What was measured:
Format in all cases: functional, cell-based
HL-60 [1] = assay: Cytotoxicity against human HL60 cells by MTT assay
K562 = assay: Cytotoxicity against human K562 cells by MTT assay
LNCaP = assay: Cytotoxicity against human LNCAP cells by MTT assay
HL-60 [2] = assay: Induction of apoptosis in human HL60 cells assessed as DNA fragmentation at 30 uM after 18 hrs by agarose-gel electrophoresis

SMILES	pIC50 (HL-60 [1])	pIC50 (K562)	pIC50 (LNCaP)	Activity (HL-60 [2])
C=C[C@@H]1C=C(C)[C@H]2[C@@H]3[C@H](Oc4ccc(cc4)C[C@@]4(O)C=C(C(=O)N4)C(=O)[C@@H]13)[C@@H]1[C@@H](C)C[C@@H](C)C[C@]12C [PYRROSPIRONE C]	6.92	6.35	6.32	
C=C[C@@H]1C=C(C)[C@H]2[C@@H]3[C@H](Oc4ccc(cc4)C[C@@]4(O)C[C@H](C(=O)N4)C(=O)[C@@H]13)[C@@H]1[C@@H](C)C[C@@H](C)C[C@]12C [PYRROSPIRONE D]	5.16	5.06	4.93	
CC1=C[C@H]2[C@@H]3C(=O)[C@]4(C[C@@H]2O)C[C@](O)(Cc2ccc(cc2)O[C@H]2[C@H]3[C@@H]1[C@]1(C)C[C@H](C)C[C@H](C)[C@@H]21)NC4=O [PYRROSPIRONE B]	5.13	5.03	4.69	Active
CC1=C[C@H]2[C@@H]3C(=O)[C@]4(C[C@H]2O)C[C@](O)(Cc2ccc(cc2)O[C@H]2[C@H]3[C@@H]1[C@]1(C)C[C@H](C)C[C@H](C)[C@@H]21)NC4=O [PYRROSPIRONE A]	4.83	5.00	4.75	Active
